In patent US20200370087A1, “METHOD FOR DETERMINING MICROBIAL SUSCEPTIBILITY TO ANTIBIOTIC AGENTS” (Ascilion AB, priority 2017, published 2020):
In brackets after ≈: the same amount, converted by molar mass.

Legend:
[1] = system: Staphylococcus aureus ATCC 29213; details: S.aureus, cited from earlier work
[2] = system: Staphylococcus aureus (ATCC 29213); assay: Glucose consumption susceptibility test, blood culture diluted in MHB with glucose (Example 1); assay type: cell-based; parameters: glucose concentration, t = 0 / glucose concentration, t = 60 / glucose concentration, t = 120 / glucose concentration, t = 180 / glucose concentration, t = 240 / dC/dT (rate of change in glucose concentration): unit not given here; details: for F = the rate of change in glucose concentration in relation to the reference / dC/dT (rate of change in glucose concentration) / glucose concentration, t = 0 / glucose concentration, t = 60 / glucose concentration, t = 120 / glucose concentration, t = 180 / glucose concentration, t = 240: S. aureus; for glucose concentration, t = 0: 0 minutes; for glucose concentration, t = 60: 60 minutes; for glucose concentration, t = 120: 120 minutes; for glucose concentration, t = 180: 180 minutes; for glucose concentration, t = 240: 240 minutes
Description: (§1) Strains of Escherichia coli (ATCC 25922), Enterococcus faecalis (ATCC 29212) and Staphylococcus aureus (ATCC 29213) were inoculated in blood culture bottles (SVA, Uppsala, Sweden) and cultivated according to the manufacturer's instructions until positive.
(§2) Medium from each blood culture bottle was diluted 1:100 with cation adjusted Mueller-Hinton broth (SVA, Uppsala, Sweden) supplemented with glucose to a concentration of 1.0 mg/mL.
(§3) Glucose concentrations were measured at 0, 60, 120, 180, and 240 minutes using a WaveSense Jazz glucometer (AgaMatrix, Inc., Salem, N.H., USA) with accompanying test strips.
(§4) Susceptibility scores corresponding to MIC values were calculated as described above. A 80% threshold was applied, i.e. the lowest concentration of antibiotic that entailed a rate of change in glucose concentration that was equal to or less than 80% of the reference was selected as the Minimal Inhibitory Concentration. The rate of change was calculated between the measurements at 60 and 180 minutes.

[3] = system: Escherichia coli (ATCC 25922); assay: as above; assay type: cell-based; parameters: glucose concentration, t = 0 / glucose concentration, t = 60 / glucose concentration, t = 120 / glucose concentration, t = 180 / dC/dT (rate of change in glucose concentration) / glucose concentration, t = 240: unit not given here; details: for F = the rate of change in glucose concentration in relation to the reference / dC/dT (rate of change in glucose concentration) / glucose concentration, t = 0 / glucose concentration, t = 60 / glucose concentration, t = 120 / glucose concentration, t = 180 / glucose concentration, t = 240: E. coli; for glucose concentration, t = 0: 0 minutes; for glucose concentration, t = 60: 60 minutes; for glucose concentration, t = 120: 120 minutes; for glucose concentration, t = 180: 180 minutes; for glucose concentration, t = 240: 240 minutes
Description: as §1, §2, §3, §4

SMILES: CO[C@@]1(NC(=O)Cc2cccs2)C(=O)N2C(C(=O)O)=C(COC(N)=O)CS[C@@H]21 [Cefoxitin, cefoxitin]
- MIC, EUCAST, range in parentheses ([1]; range obtained by EUCAST from ISO 20776-1: 2006): (1-4) ug/mL
- MIC, EUCAST ([1]; reference value, Mueller-Hinton agar, incubation 18±2 h): 2 µg/mL (≈ 4.68 µM)
- F = the rate of change in glucose concentration in relation to the reference ([2]; antibiotic 0.25 μg/mL): 91%
- dC/dT (rate of change in glucose concentration) ([2]; antibiotic 0.25 μg/mL): 31
- glucose concentration, t = 0 ([2]; antibiotic 0.25 μg/mL): 143
- glucose concentration, t = 60 ([2]; antibiotic 0.25 μg/mL): 152
- glucose concentration, t = 120 ([2]; antibiotic 0.25 μg/mL): 132
- glucose concentration, t = 180 ([2]; antibiotic 0.25 μg/mL): 91
- glucose concentration, t = 240 ([2]; antibiotic 0.25 μg/mL): 33
- F = the rate of change in glucose concentration in relation to the reference ([2]; antibiotic 0.5 μg/mL): 96%
- dC/dT (rate of change in glucose concentration) ([2]; antibiotic 0.5 μg/mL): 32
- glucose concentration, t = 0 ([2]; antibiotic 0.5 μg/mL): 144
- glucose concentration, t = 60 ([2]; antibiotic 0.5 μg/mL): 155
- glucose concentration, t = 120 ([2]; antibiotic 0.5 μg/mL): 130
- glucose concentration, t = 180 ([2]; antibiotic 0.5 μg/mL): 91
- glucose concentration, t = 240 ([2]; antibiotic 0.5 μg/mL): 32
- F = the rate of change in glucose concentration in relation to the reference ([2]; antibiotic 1 μg/mL): 82%
- dC/dT (rate of change in glucose concentration) ([2]; antibiotic 1 μg/mL): 28
- glucose concentration, t = 0 ([2]; antibiotic 1 μg/mL): 147
- glucose concentration, t = 60 ([2]; antibiotic 1 μg/mL): 155
- glucose concentration, t = 120 ([2]; antibiotic 1 μg/mL): 133
- glucose concentration, t = 180 ([2]; antibiotic 1 μg/mL): 100
- glucose concentration, t = 240 ([2]; antibiotic 1 μg/mL): 40
- F = the rate of change in glucose concentration in relation to the reference ([2]; antibiotic 2 μg/mL): 72%
- dC/dT (rate of change in glucose concentration) ([2]; antibiotic 2 μg/mL): 24
- glucose concentration, t = 0 ([2]; antibiotic 2 μg/mL): 141
- glucose concentration, t = 60 ([2]; antibiotic 2 μg/mL): 146
- glucose concentration, t = 120 ([2]; antibiotic 2 μg/mL): 143
- glucose concentration, t = 180 ([2]; antibiotic 2 μg/mL): 98
- glucose concentration, t = 240 ([2]; antibiotic 2 μg/mL): 61
- F = the rate of change in glucose concentration in relation to the reference ([2]; antibiotic 4 μg/mL): 16%
- dC/dT (rate of change in glucose concentration) ([2]; antibiotic 4 μg/mL): 6
- glucose concentration, t = 0 ([2]; antibiotic 4 μg/mL): 142
- glucose concentration, t = 60 ([2]; antibiotic 4 μg/mL): 150
- glucose concentration, t = 120 ([2]; antibiotic 4 μg/mL): 143
- glucose concentration, t = 180 ([2]; antibiotic 4 μg/mL): 139
- glucose concentration, t = 240 ([2]; antibiotic 4 μg/mL): 139
- F = the rate of change in glucose concentration in relation to the reference ([2]; antibiotic 8 μg/mL): 24%
- dC/dT (rate of change in glucose concentration) ([2]; antibiotic 8 μg/mL): 8
- glucose concentration, t = 0 ([2]; antibiotic 8 μg/mL): 136
- glucose concentration, t = 60 ([2]; antibiotic 8 μg/mL): 157
- glucose concentration, t = 120 ([2]; antibiotic 8 μg/mL): 160
- glucose concentration, t = 180 ([2]; antibiotic 8 μg/mL): 141
- glucose concentration, t = 240 ([2]; antibiotic 8 μg/mL): 149
- F = the rate of change in glucose concentration in relation to the reference ([2]; antibiotic 16 μg/mL): 22%
- dC/dT (rate of change in glucose concentration) ([2]; antibiotic 16 μg/mL): 8
- glucose concentration, t = 0 ([2]; antibiotic 16 μg/mL): 140
- glucose concentration, t = 60 ([2]; antibiotic 16 μg/mL): 157
- glucose concentration, t = 120 ([2]; antibiotic 16 μg/mL): 152
- glucose concentration, t = 180 ([2]; antibiotic 16 μg/mL): 142
- glucose concentration, t = 240 ([2]; antibiotic 16 μg/mL): 142
- F = the rate of change in glucose concentration in relation to the reference ([2]; antibiotic 32 μg/mL): 27%
- dC/dT (rate of change in glucose concentration) ([2]; antibiotic 32 μg/mL): 9
- glucose concentration, t = 0 ([2]; antibiotic 32 μg/mL): 145
- glucose concentration, t = 60 ([2]; antibiotic 32 μg/mL): 154
- glucose concentration, t = 120 ([2]; antibiotic 32 μg/mL): 145
- glucose concentration, t = 180 ([2]; antibiotic 32 μg/mL): 136
- glucose concentration, t = 240 ([2]; antibiotic 32 μg/mL): 139
- MIC ([2]; Staphylococcus aureus, ATCC29213, S.aureus, 80% threshold of reference rate of change, 60 to 180 minutes, read-out: MIC, Measured): 2 µg/mL (≈ 4.68 µM)
- F = the rate of change in glucose concentration in relation to the reference ([3]; antibiotic 0.25 μg/mL): 165%
- dC/dT (rate of change in glucose concentration) ([3]; antibiotic 0.25 μg/mL): 102
- glucose concentration, t = 0 ([3]; antibiotic 0.25 μg/mL): 145
- glucose concentration, t = 60 ([3]; antibiotic 0.25 μg/mL): 157
- glucose concentration, t = 120 ([3]; antibiotic 0.25 μg/mL): 143
- glucose concentration, t = 180 ([3]; antibiotic 0.25 μg/mL): 41
- F = the rate of change in glucose concentration in relation to the reference ([3]; antibiotic 0.5 μg/mL): 139%
- dC/dT (rate of change in glucose concentration) ([3]; antibiotic 0.5 μg/mL): 86
- glucose concentration, t = 0 ([3]; antibiotic 0.5 μg/mL): 139
- glucose concentration, t = 60 ([3]; antibiotic 0.5 μg/mL): 154
- glucose concentration, t = 120 ([3]; antibiotic 0.5 μg/mL): 140
- glucose concentration, t = 180 ([3]; antibiotic 0.5 μg/mL): 54
- F = the rate of change in glucose concentration in relation to the reference ([3]; antibiotic 1 μg/mL): 129%
- dC/dT (rate of change in glucose concentration) ([3]; antibiotic 1 μg/mL): 80
- glucose concentration, t = 0 ([3]; antibiotic 1 μg/mL): 144
- glucose concentration, t = 60 ([3]; antibiotic 1 μg/mL): 150
- glucose concentration, t = 120 ([3]; antibiotic 1 μg/mL): 143
- glucose concentration, t = 180 ([3]; antibiotic 1 μg/mL): 63
- F = the rate of change in glucose concentration in relation to the reference ([3]; antibiotic 2 μg/mL): 102%
- dC/dT (rate of change in glucose concentration) ([3]; antibiotic 2 μg/mL): 63
- glucose concentration, t = 0 ([3]; antibiotic 2 μg/mL): 143
- glucose concentration, t = 60 ([3]; antibiotic 2 μg/mL): 163
- glucose concentration, t = 120 ([3]; antibiotic 2 μg/mL): 138
- glucose concentration, t = 180 ([3]; antibiotic 2 μg/mL): 75
- F = the rate of change in glucose concentration in relation to the reference ([3]; antibiotic 4 μg/mL): 19%
- dC/dT (rate of change in glucose concentration) ([3]; antibiotic 4 μg/mL): 12
- glucose concentration, t = 0 ([3]; antibiotic 4 μg/mL): 146
- glucose concentration, t = 60 ([3]; antibiotic 4 μg/mL): 149
- glucose concentration, t = 120 ([3]; antibiotic 4 μg/mL): 140
- glucose concentration, t = 180 ([3]; antibiotic 4 μg/mL): 125
- glucose concentration, t = 240 ([3]; antibiotic 4 μg/mL): 116
- F = the rate of change in glucose concentration in relation to the reference ([3]; antibiotic 8 μg/mL): 18%
- dC/dT (rate of change in glucose concentration) ([3]; antibiotic 8 μg/mL): 11
- glucose concentration, t = 0 ([3]; antibiotic 8 μg/mL): 145
- glucose concentration, t = 60 ([3]; antibiotic 8 μg/mL): 164
- glucose concentration, t = 120 ([3]; antibiotic 8 μg/mL): 149
- glucose concentration, t = 180 ([3]; antibiotic 8 μg/mL): 132
- glucose concentration, t = 240 ([3]; antibiotic 8 μg/mL): 127
- F = the rate of change in glucose concentration in relation to the reference ([3]; antibiotic 16 μg/mL): 6%
- dC/dT (rate of change in glucose concentration) ([3]; antibiotic 16 μg/mL): 4
- glucose concentration, t = 0 ([3]; antibiotic 16 μg/mL): 142
- glucose concentration, t = 60 ([3]; antibiotic 16 μg/mL): 152
- glucose concentration, t = 120 ([3]; antibiotic 16 μg/mL): 152
- glucose concentration, t = 180 ([3]; antibiotic 16 μg/mL): 141
- glucose concentration, t = 240 ([3]; antibiotic 16 μg/mL): 145
- F = the rate of change in glucose concentration in relation to the reference ([3]; antibiotic 32 μg/mL): 5%
- dC/dT (rate of change in glucose concentration) ([3]; antibiotic 32 μg/mL): 3
- glucose concentration, t = 0 ([3]; antibiotic 32 μg/mL): 146
- glucose concentration, t = 60 ([3]; antibiotic 32 μg/mL): 150
- glucose concentration, t = 120 ([3]; antibiotic 32 μg/mL): 143
- glucose concentration, t = 180 ([3]; antibiotic 32 μg/mL): 142
- glucose concentration, t = 240 ([3]; antibiotic 32 μg/mL): 137
- MIC ([3]; Escherichia coli, ATCC25922, E.coli, 80% threshold of reference rate of change, 60 to 180 minutes, N/A = not susceptible, no MIC value can be calculated, read-out: MIC, Measured): 4 µg/mL (≈ 9.36 µM)
